The OPERA property sets (Mansouri et al. 2018)

details: not given

In order of falling melting point:
1. O=S(=O)(O)c1ccc(O)c2ncccc12  322 °C
2. CN[C@@H](Cc1ccc(O)cc1)C(=O)O  293 °C
3. CCOC(=O)c1cnc2cc(OCC(C)C)c(OCC(C)C)cc2c1O  290 °C
4. COc1ccc(-c2coc3cc(O)ccc3c2=O)cc1  256 °C
5. C[C@]12CC[C@H]3C(=CCc4cc(O)ccc43)[C@@H]1CCC2=O  239 °C
6. O=C(Nc1ccc(Cl)c(Cl)c1)Nc1cc(Cl)ccc1Oc1ccc(Cl)cc1S(=O)(=O)[O-].[Na+]  223 °C
7. Nc1ccc([N+](=O)[O-])cc1O  208 °C
8. Clc1cc(Cl)c2oc3cc(Cl)c(Cl)cc3c2c1  202 °C
9. NC(=O)c1ccc([N+](=O)[O-])cc1  200 °C
10. c1ccc2c(c1)c1ccccc1c1ccccc21  199 °C
11. Cc1cc(C(=O)NCCc2ccc(S(=O)(=O)NC(=O)NN3CCCCCC3)cc2)no1  189 °C
12. CS(=O)(=O)O.Cc1ccc(N(CC2=NCCN2)c2cccc(O)c2)cc1  181 °C
13. CNC(=O)NC(C)=O  180 °C
14. CN1CCCN=C1/C=C/c1cccs1  178 °C
15. O=c1c(O)c(-c2ccccc2)oc2ccccc12  172 °C
16. Nc1ccc([N+](=O)[O-])cc1C(=O)c1ccccc1  163 °C
17. C[C@H](NC(=O)[C@H](C)NC(=O)[C@@H](N)CCP(C)(=O)O)C(=O)[O-].[Na+]  160 °C
18. O=P(c1ccccc1)(c1ccccc1)c1ccccc1  156 °C
19. COc1ccc2c(c1O)[C@]13CCN(C)[C@H](C2)[C@@H]1C=CC(=O)C3  152 °C
20. Clc1ccc2c(c1)Oc1cc(Cl)ccc1O2  151 °C
21. CC1=C(c2ccccc2)C(=O)N(C(C)(C)c2cc(Cl)cc(Cl)c2)CO1  150 °C
22. CC(=O)NC12CC3CC(CC(C3)C1)C2  148 °C
23. Nc1ccc(Sc2ccc([N+](=O)[O-])cc2)cc1  144 °C
24. CSc1nnc(C(C)(C)C)c(=O)n1N  126 °C
25. COc1ccc2[nH]cc(CCN)c2c1  122 °C
26. O=C(CCC(=O)Oc1ccccc1)Oc1ccccc1  121 °C
27. COc1c(Cl)ccc(Cl)c1C(=O)O  115 °C
28. CC(=O)CC(=O)Nc1ccccc1C  105 °C
29. c1ccc(COc2ccc3[nH]ccc3c2)cc1  102 °C
30. O=C(C=Cc1ccccc1)NCCO  101 °C
31. COc1cc(O)ccc1O  90 °C
32. C[C@@H]([C@H](O)c1ccccc1)N(C)C  87.5 °C
33. O=Cc1cc(Br)cc(Br)c1O  86 °C
34. O=C(CCCN1CCN(c2ccccn2)CC1)c1ccc(F)cc1  74 °C
35. O=C(OC1CCCCC1)c1ccccc1C(=O)OC1CCCCC1  66 °C
36. Cc1ccc2ccc3ccccc3c2c1  65 °C
37. C=CCC1(C(C)C)C(=O)NC(=O)N(C)C1=O (centres undefined)  56.5 °C
38. COC(=O)c1ccc2c(c1)OCO2  53 °C
39. O=C(CCl)OC(=O)CCl  46 °C
40. CCOc1cc(Cl)c(N)c(Cl)c1  46 °C
41. C(=NC1CCCCC1)=NC1CCCCC1  34.5 °C
42. O=C(OC(Cl)(Cl)Cl)C(Cl)(Cl)Cl  34 °C
43. Clc1ccc(Br)c(Cl)c1  26 °C
44. Cc1ccc(Cl)cc1N  26 °C
45. OC1CCCCCCC1  25.1 °C
46. CCCCCCC(=O)c1ccccc1  16.4 °C
47. C=Cc1ccc(Cl)cc1  15.9 °C
48. c1ccc(OCC2CO2)cc1 (centres undefined)  3.5 °C
49. CCCCCCCCCC=O  -5 °C
50. CCCCCCC(=O)CCC  -9 °C
51. C1=CCCCCCC1  -12 °C
52. Cc1ccc(N)c(C)c1  -14.3 °C
53. Sc1ccccc1  -14.9 °C
54. CCCOC(=O)CCCCC(=O)OCCC  -15.7 °C
55. C=C(Cl)c1ccccc1  -23 °C
56. CCCCC/C=C\C/C=C\CCCCCCCC(=O)OC  -35 °C
57. Fc1ccc(C(F)(F)F)cc1  -41.7 °C
58. COCCOCCOCCO  -44 °C
59. COc1cccc(C)c1  -47 °C
60. C#CC(C)(C)Cl  -61 °C
61. CCCCCC(=O)OCCCC  -64.3 °C
62. CC(CC(C)(C)C)CC(C)(C)C  -67 °C
63. CC(=O)OCCC(C)C  -78.5 °C
64. CCCOC(=O)CCC  -95.2 °C
65. CCC(C)(C)CC  -135 °C
66. C=CCC(C)(C)C  -137 °C
67. CCC[C@@H](C)S  -169 °C

In order of rising boiling point:
1. FC(F)(F)CI  54.5 °C
2. C=C=C(C)CC  70 °C
3. C=CCC(C)(C)C  72.5 °C
4. C#CC(C)(C)Cl  76 °C
5. CCC(C)(C)CC  86 °C
6. Cc1coc(C)c1  94 °C
7. C=CC(=O)CC  103 °C
8. Fc1ccc(C(F)(F)F)cc1  104 °C
9. CCC[C@@H](C)S  113 °C
10. C=CCCCBr  126 °C
11. CCOCC(C)O (centres undefined)  131 °C
12. CCOC(=O)C1CC1  134 °C
13. CC(=O)OCCC(C)C  142 °C
14. CCCOC(=O)CCC  143 °C
15. CC(C)OCCO  145 °C
16. CCNCCNCC  146 °C
17. C1CNCCN1  146 °C
18. CC(CCl)CBr (centres undefined)  155 °C
19. CCCC(C)(C)C(C)CC (centres undefined)  161 °C
20. CCC#CCCO  163 °C
21. CC(C)CCOC(=O)C(C)C  168 °C
22. Sc1ccccc1  169 °C
23. CCCCCCO[N+](=O)[O-]  171 °C
24. COc1cccc(C)c1  176 °C
25. CC(CC(C)(C)C)CC(C)(C)C  178 °C
26. C=Cc1ccc(Cl)cc1  192 °C
27. O=C(OC(Cl)(Cl)Cl)C(Cl)(Cl)Cl  192 °C
28. CCCC=C(C=O)CC  195 °C
29. C=C(Cl)c1ccccc1  199 °C
30. O=C(CCl)OC(=O)CCl  203 °C
31. CCCCCCC(=O)CCC  206 °C
32. CCCCCCCCCC=O  208 °C
33. CCCCCC(=O)OCCCC  208 °C
34. Cc1ccc(N)c(C)c1  214 °C
35. CCCCCC(CO)CCC (centres undefined)  218 °C
36. Clc1ccc(Br)c(Cl)c1  235 °C
37. Cc1ccc(Cl)cc1N  239 °C
38. C=C(C)C1CC=C(C=O)CC1 (centres undefined)  240 °C
39. c1ccc(OCC2CO2)cc1 (centres undefined)  245 °C
40. COCCOCCOCCO  249 °C
41. CCOc1cc(Cl)c(N)c(Cl)c1  275 °C
42. CCCCCCC(=O)c1ccccc1  283 °C
43. O=C(CCC(=O)Oc1ccccc1)Oc1ccccc1  330 °C
44. Cc1ccc2ccc3ccccc3c2c1  350 °C
45. c1ccc2c(c1)c1ccccc1c1ccccc21  425 °C

In order of rising log10 vapour pressure (mmHg):
1. O=P(c1ccccc1)(c1ccccc1)c1ccccc1  -8.59
2. Clc1cc(Cl)c2oc3cc(Cl)c(Cl)cc3c2c1  -7.71
3. c1ccc2c(c1)c1ccccc1c1ccccc21  -7.68
4. CSc1nnc(C(C)(C)C)c(=O)n1N  -6.36
5. O=C(OC1CCCCC1)c1ccccc1C(=O)OC1CCCCC1  -6.06
6. Clc1ccc2c(c1)Oc1cc(Cl)ccc1O2  -5.98
7. CCCCC/C=C\C/C=C\CCCCCCCC(=O)OC  -5.44
8. O=C(O)c1ccc(C(=O)O)cc1  -5.04
9. CCOC(=O)CC(SP(=O)(OC)OC)C(=O)OCC (centres undefined)  -5.01
10. COc1c(Cl)ccc(Cl)c1C(=O)O  -4.47
11. c1ccc(OCC2CO2)cc1 (centres undefined)  -2
12. CCCCOS(=O)(=O)OCCCC  -1.93
13. O=C(CCl)OC(=O)CCl  -1.43
14. CCCCCCCCCC=O  -0.987
15. Cc1ccc(N)c(C)c1  -0.876
16. C1CNCCN1  -0.796
17. C=Cc1ccc(Cl)cc1  -0.0885
18. CCCC=C(C=O)CC  0.107
19. CCCCCCO[N+](=O)[O-]  0.199
20. Sc1ccccc1  0.286
21. CC(=O)OCCC(C)C  0.748
22. CCCOC(=O)CCC  0.775
23. CCC(C)(C)CC  1.92

For `C1CNCCN1`, the ready biodegradability was “not readily biodegradable”.
With `CC(=O)CC(=O)Nc1ccccc1C` the ready biodegradability was “readily biodegradable”.
In the case of `O=C(OC1CCCCC1)c1ccccc1C(=O)OC1CCCCC1`, the ready biodegradability is reported as “readily biodegradable”.
In the case of `Cc1ccc(O)c(-n2n3c4ccccc4n23)c1`, the ready biodegradability is reported as “not readily biodegradable”.
For `O=C(O)c1cc(O)c(O)c(O)c1`, the ready biodegradability was “readily biodegradable”.
With `Cc1ccc(O)cc1[N+](=O)[O-]` the ready biodegradability was “not readily biodegradable”.
With `C=Cc1ccc(Cl)cc1` the ready biodegradability was “not readily biodegradable”.
For `c1ccc(OCC2CO2)cc1` (centres undefined), the ready biodegradability was “not readily biodegradable”.
With `Cc1ccc(N)c(C)c1` the ready biodegradability was “not readily biodegradable”.
For `CCC#CCCO`, the ready biodegradability was “readily biodegradable”.
For `C(=NC1CCCCC1)=NC1CCCCC1`, the ready biodegradability was “not readily biodegradable”.
With `CCCC=C(C=O)CC` the ready biodegradability was “readily biodegradable”.
With `CCCCCCCCCC=O` the ready biodegradability was “readily biodegradable”.
In the case of `CSc1ccc(O)cc1`, the ready biodegradability is reported as “not readily biodegradable”.
With `COP1(=S)OCc2ccccc2O1` (centres undefined) the ready biodegradability was “not readily biodegradable”.
With `CCCCCCCCCCOCCCCCCCCCC` the ready biodegradability was “readily biodegradable”.
In the case of `ClC1=C(Cl)C2(Cl)C3CCC4C(CCC3C1(Cl)C2(Cl)Cl)C1(Cl)C(Cl)=C(Cl)C4(Cl)C1(Cl)Cl` (centres undefined), the ready biodegradability is reported as “not readily biodegradable”.
In the case of `O=C(O)c1ccc(C(=O)O)cc1`, the ready biodegradability is reported as “readily biodegradable”.
With `CC(=O)Nc1ccc2c(c1)Cc1cc(F)ccc1-2` the ready biodegradability was “not readily biodegradable”.
For `CC(C)OCCO`, the ready biodegradability was “not readily biodegradable”.
With `Sc1ccccc1` the ready biodegradability was “not readily biodegradable”.
For `COCCOCCOCCO`, the ready biodegradability was “readily biodegradable”.

In order of falling log10 Henry constant (atm·m³/mol):
1. CCCCCCCCCC=O  -2.74
2. CCCCCCO[N+](=O)[O-]  -2.83
3. CC(=O)OCCC(C)C  -3.23
4. Clc1ccc(-c2ccccc2)cc1Cl  -3.85
5. CC(C)OCCO  -6.04

In order of falling log10 biodegradation half-life (days):
1. c1ccc2c(c1)c1ccccc1c1ccccc21  2.58
2. CCC(C)(C)CC  0.954

In order of rising log10 Koc (L/kg):
1. COc1c(Cl)ccc(Cl)c1C(=O)O  1.5
2. CSc1nnc(C(C)(C)C)c(=O)n1N  1.71
3. NC(=O)c1ccc([N+](=O)[O-])cc1  1.93

`CC(=O)OCCC(C)C` gave a log10 Koa of 3.94.

same assay, conditions: fish

In order of rising log10 BCF:
1. CCOC(=O)CC(SP(=O)(OC)OC)C(=O)OCC (centres undefined)  0.05
2. C1CNCCN1  0.59
3. Cc1ccc(O)cc1[N+](=O)[O-]  1
4. COP1(=S)OCc2ccccc2O1 (centres undefined)  1.31
5. CC(CC(C)(C)C)CC(C)(C)C  2.94

In order of rising log10 biotransformation half-life (days):
1. COP1(=S)OCc2ccccc2O1 (centres undefined)  -1.15
2. CCOC(=O)CC(SP(=O)(OC)OC)C(=O)OCC (centres undefined)  -1.04
3. Cc1ccc(O)cc1[N+](=O)[O-]  -0.8
4. c1ccc2c(c1)c1ccccc1c1ccccc21  -0.08
5. CC(CC(C)(C)C)CC(C)(C)C  0.72
6. Clc1cc2c(oc3c(Cl)c(Cl)ccc32)c(Cl)c1Cl  0.9
